Source: patent US20240390295A1, “METHODS FOR TREATING DEPRESSION” (JANSSEN PHARMACEUTICA NV, priority 2020, published 2024)
Values joined by “and” are separate entries in the source; they are usually repeats but may differ in a detail not shown here. Equal values may be shown once.

Test system: adult patients (aged 18-64 years) with TRD
Assay: Clinician-reported adverse events: incidence and recurrence by Week 1/Week 4 frequency, pooled studies 1 and 2 (ESK + OAD)
Assay type: in vivo, human
From the text: Data were pooled from adult patients (aged 18-64 years) with TRD. Patients had recurrent or single-episode (>2 years) MDD (DSM-5), a Clinician-Rated Inventory of Depressive Symptomatology score of >3 and a total Montgomery-Åsberg Depression Rating Scale (MADRS) score of >2. At screening, depressive symptoms had been non-responsive to adequate trials of ≥1 and ≤5 commercially available OAD in the current depressive episode. Non response was further confirmed by a prospective trial of a different OAD lasting ≥4 weeks and during the screening phase.
In brief, study 1 was a double-blind, placebo-controlled relapse prevention trial comparing the efficacy of ESK versus placebo nasal spray, both in conjunction with a Food and Drug Administration (FDA)-approved OAD, in delaying relapse of depressive symptoms in patients with TRD who were either in stable remission or stable response after four months' treatment with ESK in conjunction with a FDA-approved OAD. Study 2 was an open-label, multicenter study that assessed the long-term safety and efficacy of ESK in conjunction with an FDA-approved OAD in patients with TRD.
The analysis was limited to the two doses of ESK (56 mg and 84 mg) approved for use by the FDA for patients with TRD. Patients received ESK (56 or 84 mg) in conjunction with an OAD twice weekly during the induction phase (Weeks 1-4); once weekly during Weeks 5-8 of the optimization phase: either once weekly or every other week during the remainder of the 12-week optimization phase and the maintenance phase (individualized according to the severity of depressive symptoms [MADRS total score≤/>12] and tolerability).
Patients were monitored for >90 minutes after ESK administration at each treatment session, after which time they could leave the clinical site at the clinician's discretion. AEs were monitored and reported, and safety assessments, including clinical laboratory tests and physical examinations, were conducted throughout the study. Clinician-reported AEs were categorized as mild, moderate, or severe based on clinical judgement (Table 1).
This analysis included any treatment sessions in which patients received ESK (either open-label or blinded). The occurrence and severity of AEs were assessed within the following timeframes: Month 1 (Week 1 and Weeks 2-4), Month 2 (Weeks 5-8), Months 3-6 and Months 6-12. Severity of clinician-reported AEs were scored as 0 (no AE), 1 (mild), 2 (moderate), and 3 (severe). To examine AEs in individual patients over time, only patients who received at least one ESK dose in the following period were included in the analyses of each respective period. Thus, patient data were retained in (i) Week 1 if the patient received ≥1 ESK dose in Weeks 2-4, (ii) Weeks 2-4 if the patient received ≥1 ESK dose in Weeks 5-8, (iii) Weeks 5-8 if the patient received ≥1 ESK dose in Months 3-6, and (iv) Months 3-6 if the patient received ≥1 ESK dose in Months 6-12.
The five most commonly reported treatment-emergent events occurring with ESK plus OAD therapy (dissociation, dizziness, nausea, sedation, and vertigo) were evaluated, each of which has an incidence ≥5% and at least a 2-fold greater incidence than with placebo plus an OAD. 14 Increases in BP were also examined.
Week 1 and Week 4 were set a priori as index weeks because they are the beginning and end of the induction period. Frequencies and maximum-reported severities of AEs reported during these index weeks served as stratifying variables by which to examine recurrence and severities of AE recurrences in future timeframes.

[1] = Weeks 2-4, overall rate for timeframe
[2] = Weeks 5-8, overall rate for timeframe
[3] = human, in vivo, other: nasal spray, 1 week

## CN[C@]1(c2ccccc2Cl)CCCCC1=O [esketamine, (S)-2-(2-chlorophenyl)-2-(methylamino)cyclohexanone]
Weeks 2-4, AE once in Week 1
  Clinician-reported dissociation: 48.2%
  Clinician-reported increased blood pressure: 56.5%
  Clinician-reported sedation: 36.8%
  Dizziness: 51.9%
  Nausea: 28.6%
  Vertigo: 67.4%
Weeks 2-4, AE twice in Week 1
  Clinician-reported dissociation: 86.5%
  Clinician-reported increased blood pressure: 77.8%
  Clinician-reported sedation: 70.6%
  Dizziness: 86.4%
  Nausea: 61.9%
  Vertigo: 90.3%
Weeks 2-4, No AE in Week 1
  Clinician-reported dissociation: 5.6% and 5.7%
  Clinician-reported increased blood pressure: 2.4%
  Clinician-reported sedation: 2.1%
  Dizziness: 6.3%
  Nausea: 5.3%
  Vertigo: 5.5%
Weeks 2-4, None in Week 1
  Anxiety: 1.3%
  Feeling Drunk: 0.4%
  Hypoesthesia: 3.7%
  Lethargy: 1.0%
  Vomiting: 2.4%
Weeks 2-4, Once in Week 1
  Anxiety: 11.8%
  Feeling Drunk: 30.8%
  Hypoesthesia: 54.3%
  Lethargy: 71.4%
  Vomiting: 31.0%
Weeks 2-4, Overall
  Anxiety: 1.7%
  Feeling Drunk: 1.9%
  Hypoesthesia: 7.2%
  Lethargy: 1.5%
  Vomiting: 3.3%
Weeks 2-4, Twice in Week 1
  Anxiety: 100%
  Feeling Drunk: 90.9%
  Hypoesthesia: 76.2%
  Lethargy: 0%
  Vomiting: 0%
[1]
  Clinician-reported dissociation: 16.1%
  Clinician-reported increased blood pressure: 5.2%
  Clinician-reported sedation: 4.1%
  Dizziness: 19.2%
  Nausea: 9.4%
  Vertigo: 15.0%
Weeks 5-8, AE once in Week 1
  Clinician-reported dissociation: 29.8%
  Clinician-reported increased blood pressure: 40.9%
  Clinician-reported sedation: 22.2%
  Dizziness: 30.8%
  Nausea: 16.1%
  Vertigo: 45.2%
Weeks 5-8, AE twice in Week 1
  Clinician-reported dissociation: 60.0%
  Clinician-reported increased blood pressure: 55.6%
  Clinician-reported sedation: 52.9%
  Dizziness: 62.5%
  Nausea: 30.0%
  Vertigo: 67.6%
Weeks 5-8, No AE in Week 1
  Clinician-reported dissociation: 6.1%
  Clinician-reported increased blood pressure: 1.9%
  Clinician-reported sedation: 1.2%
  Dizziness: 3.7%
  Nausea: 1.7%
  Vertigo: 3.0%
Weeks 5-8, None in Week 1
  Anxiety: 0.8%
  Feeling Drunk: 0.1%
  Hypoesthesia: 1.6%
  Lethargy: 1.1%
  Vomiting: 1.5%
Weeks 5-8, Once in Week 1
  Anxiety: 5.9%
  Feeling Drunk: 16.7%
  Hypoesthesia: 20.7%
  Lethargy: 40.0%
  Vomiting: 21.1%
Weeks 5-8, Overall
  Anxiety: 1.0%
  Feeling Drunk: 1.6%
  Hypoesthesia: 3.4%
  Lethargy: 1.2%
  Vomiting: 1.8%
Weeks 5-8, Twice in Week 1
  Anxiety: 50.0%
  Feeling Drunk: 90.9%
  Hypoesthesia: 58.3%
  Lethargy: 0%
  Vomiting: 0%
[2]
  Clinician-reported dissociation: 12.6%
  Clinician-reported increased blood pressure: 3.9%
  Clinician-reported sedation: 2.6%
  Dizziness: 12.5%
  Nausea: 4.0%
  Vertigo: 9.9%
All subsequent postdose monitoring periods, no increased blood pressure in week 1
  increased blood pressure reported: < 4%
Dissociation twice in week 1
  dissociation as an AE into months 3-6: > 50%
Dizziness not reported in week 1 (exception)
  dizziness at 3-6 months: 11.6%
[3]
  patients who did not have increased blood pressure during week 1: 95.7%
  patients who did not report dissociation during week 1: 83.2%
  patients who did not report nausea during week 1: 86.0%
Most pronounced with dissociation and dizziness
  impact of dose (56 or 84 mg modal dose) on AE recurrence: small dose effect
Remainder of induction period, no dissociation in week 1
  dissociation occurred: < 10%
Subsequent postdose monitoring periods, no nausea in week 1
  nausea reported: < 6%
